According to patent US10835533B2, “1 -((3S,4R)-4-(3-fluorophenyl)-1-(2-methoxyethyl)pyrrolidin-3-yl)-3-(4-methyl-3-(2-methylpyrimidin-5-yl)-1-phenyl-1H-pyrazol-5-yl)urea as a TrkA kinase inhibitor” (Array BioPharma Inc., priority 2014, dated 2020):

Key:
Test in all cases: KinaseProfiler kinase profiling
Type in all cases: biochemical
Settings in all cases: 10 μM, ATP near Km
NEK2 = target: T1, NEK2 (Homo sapiens, UniProt P51955)
T1 construct: purchased Millipore, Inc. (KinaseProfiler service)
Protocol: (§1) Compound 1 was tested for off-target kinase activity at a concentration of 10 μM by Millipore, Inc. in their KinaseProfiler™ service against all the kinases available in their full kinase panel. Compound 1 was run in duplicate at a concentration of ATP near the Km for each individual kinase according to Millipore's specifications. Data are reported as percent of control (POC) and are the average of the two replicates.

CDK2/cyclinE = target: T2, CDK2/cyclinE (Homo sapiens, UniProt P24941)
T2 construct: purchased Millipore, Inc. (KinaseProfiler service)
Protocol: as §1

Flt1 = target: T3, Flt1 (Homo sapiens, UniProt P17948)
T3 construct: purchased Millipore, Inc. (KinaseProfiler service)
Protocol: as §1

MEK1 = target: T4, MEK1 (Homo sapiens, UniProt Q02750)
T4 construct: purchased Millipore, Inc. (KinaseProfiler service)
Protocol: as §1

PKD1 = target: T5, PKD1 (Homo sapiens, UniProt Q15139)
T5 construct: purchased Millipore, Inc. (KinaseProfiler service)
Protocol: as §1

MAPKAP-K2 = target: T6, MAPKAP-K2 (Homo sapiens, UniProt P49137)
T6 construct: purchased Millipore, Inc. (KinaseProfiler service)
Protocol: as §1

CHK2 = target: T7, CHK2 (Homo sapiens, UniProt O96017)
T7 construct: purchased Millipore, Inc. (KinaseProfiler service)
Protocol: as §1

BLK = target: T8, BLK (Homo sapiens, UniProt P51451)
T8 construct: purchased Millipore, Inc. (KinaseProfiler service)
Protocol: as §1

MuSK = target: T9, MuSK (Homo sapiens, UniProt O15146)
T9 construct: purchased Millipore, Inc. (KinaseProfiler service)
Protocol: as §1

EphB3 = target: T10, EphB3 (Homo sapiens, UniProt P54753)
T10 construct: purchased Millipore, Inc. (KinaseProfiler service)
Protocol: as §1

MAP3K5 = target: T11, MAP3K5 (Homo sapiens, UniProt Q99683)
T11 construct: purchased Millipore, Inc. (KinaseProfiler service)
Protocol: as §1

BrSK1 = target: T12, BrSK1 (Homo sapiens, UniProt Q8TDC3)
T12 construct: purchased Millipore, Inc. (KinaseProfiler service)
Protocol: as §1

Ros = target: T13, Ros (Homo sapiens, UniProt P08922)
T13 construct: purchased Millipore, Inc. (KinaseProfiler service)
Protocol: as §1

IGF-1R = target: T14, IGF-1R (Homo sapiens, UniProt P08069)
T14 construct: purchased Millipore, Inc. (KinaseProfiler service)
Protocol: as §1

CK2alpha2 = target: T15, CK2alpha2 (Homo sapiens, UniProt P19784)
T15 construct: purchased Millipore, Inc. (KinaseProfiler service)
Protocol: as §1

TSSK1 = target: T16, TSSK1 (Homo sapiens, UniProt Q9BXA7)
T16 construct: purchased Millipore, Inc. (KinaseProfiler service)
Protocol: as §1

PKCzeta = target: T17, PKCzeta (Homo sapiens, UniProt Q05513)
T17 construct: purchased Millipore, Inc. (KinaseProfiler service)
Protocol: as §1

Rsk4 = target: T18, Rsk4 (Homo sapiens, UniProt Q9UK32)
T18 construct: purchased Millipore, Inc. (KinaseProfiler service)
Protocol: as §1

Fgr = target: T19, Fgr (Homo sapiens, UniProt P09769)
T19 construct: purchased Millipore, Inc. (KinaseProfiler service)
Protocol: as §1

MRCKalpha = target: T20, MRCKalpha (Homo sapiens, UniProt Q5VT25)
T20 construct: purchased Millipore, Inc. (KinaseProfiler service)
Protocol: as §1

MARK1 = target: T21, MARK1 (Homo sapiens, UniProt Q9P0L2)
T21 construct: purchased Millipore, Inc. (KinaseProfiler service)
Protocol: as §1

EphB1 = target: T22, EphB1 (Homo sapiens, UniProt P54762)
T22 construct: purchased Millipore, Inc. (KinaseProfiler service)
Protocol: as §1

Ron = target: T23, Ron (Homo sapiens, UniProt Q04912)
T23 construct: purchased Millipore, Inc. (KinaseProfiler service)
Protocol: as §1

Plk3 = target: T24, Plk3 (Homo sapiens, UniProt Q9H4B4)
T24 construct: purchased Millipore, Inc. (KinaseProfiler service)
Protocol: as §1

JNK2alpha2 = target: T25, JNK2alpha2 (Homo sapiens, UniProt P45984)
T25 construct: purchased Millipore, Inc. (KinaseProfiler service)
Protocol: as §1

Abl2 = target: T26, Abl2 (Homo sapiens, UniProt P42684)
T26 construct: purchased Millipore, Inc. (KinaseProfiler service)
Protocol: as §1

ALK = target: T27, ALK (Homo sapiens, UniProt Q9UM73)
T27 construct: purchased Millipore, Inc. (KinaseProfiler service)
Protocol: as §1

DRAK1 = target: T28, DRAK1 (Homo sapiens, UniProt Q9UEE5)
T28 construct: purchased Millipore, Inc. (KinaseProfiler service)
Protocol: as §1

ULK2 = target: T29, ULK2 (Homo sapiens, UniProt Q8IYT8)
T29 construct: purchased Millipore, Inc. (KinaseProfiler service)
Protocol: as §1

Rsk3 = target: T30, Rsk3 (Homo sapiens, UniProt Q15349)
T30 construct: purchased Millipore, Inc. (KinaseProfiler service)
Protocol: as §1

CK1delta = target: T31, CK1delta (Homo sapiens, UniProt P48730)
T31 construct: purchased Millipore, Inc. (KinaseProfiler service)
Protocol: as §1

SIK = target: T32, SIK (Homo sapiens, UniProt P57059)
T32 construct: purchased Millipore, Inc. (KinaseProfiler service)
Protocol: as §1

CAMK2g = target: T33, CAMK2g (Homo sapiens, UniProt Q13555)
T33 construct: purchased Millipore, Inc. (KinaseProfiler service)
Protocol: as §1

MAPKAP-K5 = target: T34, MAPKAP-K5 (Homo sapiens, UniProt Q8IW41)
T34 construct: purchased Millipore, Inc. (KinaseProfiler service)
Protocol: as §1

FGFR4 = target: T35, FGFR4 (Homo sapiens, UniProt P22455)
T35 construct: purchased Millipore, Inc. (KinaseProfiler service)
Protocol: as §1

AMPK(A1/B1/G1) = target: T36, AMPK(A1/B1/G1) (Homo sapiens, UniProt Q13131)
T36 construct: purchased Millipore, Inc. (KinaseProfiler service)
Protocol: as §1

GRK7 = target: T37, GRK7 (Homo sapiens, UniProt Q8WTQ7)
T37 construct: purchased Millipore, Inc. (KinaseProfiler service)
Protocol: as §1

SGK2 = target: T38, SGK2 (Homo sapiens, UniProt Q9HBY8)
T38 construct: purchased Millipore, Inc. (KinaseProfiler service)
Protocol: as §1

DAPK1 = target: T39, DAPK1 (Homo sapiens, UniProt P53355)
T39 construct: purchased Millipore, Inc. (KinaseProfiler service)
Protocol: as §1

PKAC-alpha = target: T40, PKAC-alpha (Homo sapiens, UniProt P17612)
T40 construct: purchased Millipore, Inc. (KinaseProfiler service)
Protocol: as §1

DDR2 = target: T41, DDR2 (Homo sapiens, UniProt Q16832)
T41 construct: purchased Millipore, Inc. (KinaseProfiler service)
Protocol: as §1

T36 sequence (Q13131 whole entry): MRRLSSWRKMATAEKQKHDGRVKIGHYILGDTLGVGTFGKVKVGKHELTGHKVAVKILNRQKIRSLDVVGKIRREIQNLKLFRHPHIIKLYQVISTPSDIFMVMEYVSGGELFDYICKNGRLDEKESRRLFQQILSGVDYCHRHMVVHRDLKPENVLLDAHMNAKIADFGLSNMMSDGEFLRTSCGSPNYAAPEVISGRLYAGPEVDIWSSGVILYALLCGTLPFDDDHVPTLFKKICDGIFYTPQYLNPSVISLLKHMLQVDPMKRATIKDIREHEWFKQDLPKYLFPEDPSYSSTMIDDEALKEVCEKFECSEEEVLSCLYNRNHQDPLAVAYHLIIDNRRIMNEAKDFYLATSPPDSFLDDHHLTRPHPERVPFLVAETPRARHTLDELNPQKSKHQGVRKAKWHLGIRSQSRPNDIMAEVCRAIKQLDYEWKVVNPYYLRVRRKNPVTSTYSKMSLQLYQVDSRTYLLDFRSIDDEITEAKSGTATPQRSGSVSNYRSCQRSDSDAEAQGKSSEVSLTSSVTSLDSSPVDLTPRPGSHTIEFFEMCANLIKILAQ
T36 sequence (Q9Y478 whole entry partner): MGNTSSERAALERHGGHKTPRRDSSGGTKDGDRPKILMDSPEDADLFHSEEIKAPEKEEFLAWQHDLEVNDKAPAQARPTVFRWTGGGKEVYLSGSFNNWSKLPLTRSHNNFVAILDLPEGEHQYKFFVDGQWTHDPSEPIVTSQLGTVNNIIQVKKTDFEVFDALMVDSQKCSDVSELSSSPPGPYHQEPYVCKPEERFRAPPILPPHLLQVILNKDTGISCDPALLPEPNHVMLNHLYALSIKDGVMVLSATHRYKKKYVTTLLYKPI
T36 sequence (P54619 whole entry partner): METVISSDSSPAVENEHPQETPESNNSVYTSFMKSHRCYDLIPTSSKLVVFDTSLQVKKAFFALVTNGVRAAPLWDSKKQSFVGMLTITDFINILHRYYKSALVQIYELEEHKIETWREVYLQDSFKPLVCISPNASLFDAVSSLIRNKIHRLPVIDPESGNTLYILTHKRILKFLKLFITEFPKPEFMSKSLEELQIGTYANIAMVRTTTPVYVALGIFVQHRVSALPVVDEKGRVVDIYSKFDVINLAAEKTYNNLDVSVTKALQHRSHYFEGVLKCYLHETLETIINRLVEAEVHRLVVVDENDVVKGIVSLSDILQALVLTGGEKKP
T17 sequence (Q05513 whole entry): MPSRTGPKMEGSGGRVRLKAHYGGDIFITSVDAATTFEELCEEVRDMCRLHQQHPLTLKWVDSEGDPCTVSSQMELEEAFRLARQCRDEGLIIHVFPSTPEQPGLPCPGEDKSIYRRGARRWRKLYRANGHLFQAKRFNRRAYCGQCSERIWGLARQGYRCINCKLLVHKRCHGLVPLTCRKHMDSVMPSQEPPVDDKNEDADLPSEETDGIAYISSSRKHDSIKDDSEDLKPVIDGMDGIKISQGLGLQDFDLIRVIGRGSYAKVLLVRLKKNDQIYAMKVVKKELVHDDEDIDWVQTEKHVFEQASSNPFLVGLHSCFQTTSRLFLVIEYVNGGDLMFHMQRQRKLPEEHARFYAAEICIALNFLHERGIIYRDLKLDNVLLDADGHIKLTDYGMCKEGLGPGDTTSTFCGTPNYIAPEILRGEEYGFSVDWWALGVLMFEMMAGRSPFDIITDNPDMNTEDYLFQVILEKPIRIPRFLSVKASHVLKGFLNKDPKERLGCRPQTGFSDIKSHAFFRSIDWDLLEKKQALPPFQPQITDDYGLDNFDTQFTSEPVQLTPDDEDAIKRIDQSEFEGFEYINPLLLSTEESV
T22 sequence (P54762 18-984): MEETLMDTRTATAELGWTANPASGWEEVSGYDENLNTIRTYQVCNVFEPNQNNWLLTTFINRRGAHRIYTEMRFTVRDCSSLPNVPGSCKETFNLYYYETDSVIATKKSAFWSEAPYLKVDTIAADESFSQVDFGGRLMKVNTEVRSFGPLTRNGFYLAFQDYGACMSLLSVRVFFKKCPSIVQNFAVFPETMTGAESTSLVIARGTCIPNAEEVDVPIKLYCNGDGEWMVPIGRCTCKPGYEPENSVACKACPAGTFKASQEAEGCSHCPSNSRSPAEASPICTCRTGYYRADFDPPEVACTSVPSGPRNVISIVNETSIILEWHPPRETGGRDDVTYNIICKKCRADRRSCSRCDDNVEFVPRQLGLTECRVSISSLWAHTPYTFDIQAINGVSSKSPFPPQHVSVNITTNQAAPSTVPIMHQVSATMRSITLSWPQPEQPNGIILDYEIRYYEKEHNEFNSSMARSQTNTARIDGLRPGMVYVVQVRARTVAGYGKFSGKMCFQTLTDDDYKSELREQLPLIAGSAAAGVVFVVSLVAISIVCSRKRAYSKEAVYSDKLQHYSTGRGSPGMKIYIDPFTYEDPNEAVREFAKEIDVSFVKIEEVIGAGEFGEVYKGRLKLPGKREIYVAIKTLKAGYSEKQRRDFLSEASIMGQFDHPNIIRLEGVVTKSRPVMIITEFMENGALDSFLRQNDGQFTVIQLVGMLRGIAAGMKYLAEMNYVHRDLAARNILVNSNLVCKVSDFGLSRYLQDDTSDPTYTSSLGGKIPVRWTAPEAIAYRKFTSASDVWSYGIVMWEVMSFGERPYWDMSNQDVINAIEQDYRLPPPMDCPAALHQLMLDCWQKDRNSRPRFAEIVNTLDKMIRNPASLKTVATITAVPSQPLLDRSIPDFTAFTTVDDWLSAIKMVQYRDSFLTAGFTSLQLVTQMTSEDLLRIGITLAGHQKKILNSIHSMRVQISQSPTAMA
T38 sequence (Q9HBY8 whole entry): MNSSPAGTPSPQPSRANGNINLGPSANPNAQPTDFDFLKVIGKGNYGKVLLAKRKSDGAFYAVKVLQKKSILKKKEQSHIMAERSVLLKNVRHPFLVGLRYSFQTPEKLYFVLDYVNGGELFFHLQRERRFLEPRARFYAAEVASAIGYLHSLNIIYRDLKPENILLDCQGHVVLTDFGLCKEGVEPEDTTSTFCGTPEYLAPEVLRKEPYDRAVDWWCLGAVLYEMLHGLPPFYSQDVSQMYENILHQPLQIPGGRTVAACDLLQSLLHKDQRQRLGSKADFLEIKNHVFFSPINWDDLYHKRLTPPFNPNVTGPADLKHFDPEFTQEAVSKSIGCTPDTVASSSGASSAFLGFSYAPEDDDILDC
T3 sequence (P17948 27-1338): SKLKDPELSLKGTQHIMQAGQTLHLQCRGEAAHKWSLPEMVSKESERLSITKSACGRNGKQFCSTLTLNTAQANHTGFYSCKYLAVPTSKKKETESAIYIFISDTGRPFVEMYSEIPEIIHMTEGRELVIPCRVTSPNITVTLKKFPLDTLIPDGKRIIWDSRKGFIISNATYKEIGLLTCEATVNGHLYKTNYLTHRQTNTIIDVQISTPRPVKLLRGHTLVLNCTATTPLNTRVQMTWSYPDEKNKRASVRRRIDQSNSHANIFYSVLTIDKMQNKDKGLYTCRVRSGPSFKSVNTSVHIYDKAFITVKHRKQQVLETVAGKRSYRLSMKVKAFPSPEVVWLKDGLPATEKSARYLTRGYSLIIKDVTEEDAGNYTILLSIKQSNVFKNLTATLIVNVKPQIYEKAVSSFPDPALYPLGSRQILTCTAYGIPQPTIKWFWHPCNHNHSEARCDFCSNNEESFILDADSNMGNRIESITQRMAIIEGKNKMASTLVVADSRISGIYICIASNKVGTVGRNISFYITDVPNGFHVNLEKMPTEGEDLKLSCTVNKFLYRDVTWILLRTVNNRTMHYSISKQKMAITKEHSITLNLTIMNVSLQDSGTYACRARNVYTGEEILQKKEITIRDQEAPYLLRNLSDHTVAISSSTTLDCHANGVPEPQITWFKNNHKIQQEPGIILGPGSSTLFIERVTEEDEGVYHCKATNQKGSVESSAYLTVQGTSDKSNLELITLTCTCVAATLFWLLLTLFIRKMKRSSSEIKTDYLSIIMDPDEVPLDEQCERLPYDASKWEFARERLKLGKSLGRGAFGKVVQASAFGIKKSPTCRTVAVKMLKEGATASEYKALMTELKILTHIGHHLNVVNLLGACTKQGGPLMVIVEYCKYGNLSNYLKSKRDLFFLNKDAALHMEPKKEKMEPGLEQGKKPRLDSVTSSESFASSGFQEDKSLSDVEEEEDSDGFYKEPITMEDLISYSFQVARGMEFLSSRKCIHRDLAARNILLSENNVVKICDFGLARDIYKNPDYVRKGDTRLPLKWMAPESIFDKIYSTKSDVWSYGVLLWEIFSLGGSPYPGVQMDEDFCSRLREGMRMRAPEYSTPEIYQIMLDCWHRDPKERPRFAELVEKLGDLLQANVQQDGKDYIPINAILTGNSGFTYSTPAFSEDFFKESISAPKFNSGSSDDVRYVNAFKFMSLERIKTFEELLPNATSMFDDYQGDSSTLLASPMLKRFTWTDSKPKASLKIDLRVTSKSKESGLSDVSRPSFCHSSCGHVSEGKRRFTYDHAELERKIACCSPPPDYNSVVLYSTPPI
T6 sequence (P49137 whole entry): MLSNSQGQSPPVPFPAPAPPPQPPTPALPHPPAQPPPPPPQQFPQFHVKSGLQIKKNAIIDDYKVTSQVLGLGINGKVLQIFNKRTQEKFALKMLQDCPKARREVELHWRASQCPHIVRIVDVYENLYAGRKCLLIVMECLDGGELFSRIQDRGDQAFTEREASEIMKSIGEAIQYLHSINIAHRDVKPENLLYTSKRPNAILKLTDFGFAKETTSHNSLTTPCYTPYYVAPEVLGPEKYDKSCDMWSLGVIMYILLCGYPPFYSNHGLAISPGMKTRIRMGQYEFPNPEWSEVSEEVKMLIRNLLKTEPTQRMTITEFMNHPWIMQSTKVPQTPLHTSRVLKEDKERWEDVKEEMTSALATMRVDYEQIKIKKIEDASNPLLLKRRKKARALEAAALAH

COCCN1C[C@@H](NC(=O)Nc2c(C)c(-c3cnc(C)nc3)nn2-c2ccccc2)[C@H](c2cccc(F)c2)C1 [Compound 1, 1-((3S,4R)-4-(3-fluorophenyl)-1-(2-methoxyethyl)pyrrolidin-3-yl)-3-(4-methyl-3-(2-methylpyrimidin-5-yl)-1-phenyl-1H-pyrazol-5-yl)urea]
Avg POC (NEK2): 95 POC | Avg POC (CDK2/cyclinE): 102 POC | Avg POC (Flt1): 97 POC | Avg POC (MEK1): 103.5 POC | Avg POC (PKD1): 94.5 POC | Avg POC (MAPKAP-K2): 115 POC | Avg POC (CHK2): 102.5 POC | Avg POC (BLK): 82.5 POC | Avg POC (MuSK): 95 POC | Avg POC (EphB3): 89.5 POC | Avg POC (MAP3K5): 101 POC | Avg POC (BrSK1): 98 POC | Avg POC (Ros): 112.5 POC | Avg POC (IGF-1R): 80.5 POC | Avg POC (CK2alpha2): 106 POC | Avg POC (TSSK1): 104 POC | Avg POC (PKCzeta): 97.5 POC | Avg POC (Rsk4): 105.5 POC | Avg POC (Fgr): 106 POC | Avg POC (MRCKalpha): 90.5 POC | Avg POC (MARK1): 100 POC | Avg POC (EphB1): 105.5 POC | Avg POC (Ron): 100 POC | Avg POC (Plk3): 100.5 POC | Avg POC (JNK2alpha2): 98.5 POC | Avg POC (Abl2): 110.5 POC | Avg POC (ALK): 89 POC | Avg POC (DRAK1): 129.5 POC | Avg POC (ULK2): 106 POC | Avg POC (Rsk3): 107.5 POC | Avg POC (CK1delta): 104 POC | Avg POC (SIK): 108 POC | Avg POC (CAMK2g): 97 POC | Avg POC (MAPKAP-K5): 89.5 POC | Avg POC (FGFR4): 105 POC | Avg POC (AMPK(A1/B1/G1)): 102.5 POC | Avg POC (GRK7): 101 POC | Avg POC (SGK2): 112 POC | Avg POC (DAPK1): 114 POC | Avg POC (PKAC-alpha): 129.5 POC | Avg POC (DDR2): 121.5 POC
